Test results as given in PubChem BioAssay (NCI).
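In this assay, cells in 96-well plates receive the compound at five concentrations for 48 hours. Endpoints are linearly interpolated between the surrounding concentrations. At the TGI there is no net growth.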

Assays:
Assay in all cases: NCI tumour cell line growth inhibition, 48 h
[1] = test system: SNB-19 CNS
[2] = test system: SK-MEL-5 melanoma
[3] = test system: OVCAR-3 ovarian
[4] = test system: SK-OV-3 ovarian
[5] = test system: MDA-MB-435
[6] = test system: KM12 colon
[7] = test system: HCT-15 colon
[8] = test system: T-47D breast
[9] = test system: IGROV1 ovarian
[10] = test system: DU-145 prostate
[11] = test system: NCI/ADR-RES ovarian
[12] = test system: SK-MEL-2 melanoma
[13] = test system: NCI-H522 lung
[14] = test system: MDA-MB-231 breast
[15] = test system: LOX IMVI melanoma
[16] = test system: CCRF-CEM leukemia
[17] = test system: HT29 colon
[18] = test system: HS 578T breast
[19] = test system: UACC-62 melanoma
[20] = test system: HCC-2998 colon
[21] = test system: MDA-N
[22] = test system: NCI-H23 lung
[23] = test system: OVCAR-5 ovarian
[24] = test system: M14 melanoma
[25] = test system: A549 NSCLC
[26] = test system: NCI-H460 lung
[27] = test system: SF-268 CNS
[28] = test system: MOLT-4 leukemia
[29] = test system: UO-31 renal
[30] = test system: HCT-116 colon
[31] = test system: U251 CNS
[32] = test system: SW-620 colon
[33] = test system: COLO 205 colon
[34] = test system: MCF7 breast
[35] = test system: SR leukemia
[36] = test system: OVCAR-4 ovarian
[37] = test system: UACC-257 melanoma
[38] = test system: SK-MEL-28 melanoma
[39] = test system: K-562 leukemia
[40] = test system: SF-295 CNS
[41] = test system: SN12C renal
[42] = test system: TK-10 renal
[43] = test system: SF-539 CNS
[44] = test system: RPMI-8226 leukemia
[45] = test system: PC-3 prostate
[46] = test system: EKVX NSCLC
[47] = test system: HOP-92 NSCLC
[48] = test system: SNB-75 CNS
[49] = test system: CAKI-1 renal
[50] = test system: OVCAR-8 ovarian
[51] = test system: ACHN renal
[52] = test system: HL-60(TB) leukemia
[53] = test system: RXF 393 renal
[54] = test system: 786-0 renal
[55] = test system: BT-549 breast
[56] = test system: MALME-3M melanoma
[57] = test system: A498 renal

CCC1=NC(C(F)(F)F)(C(F)(F)F)N=C(N2CCOCC2)O1
TGI [1]: > 100 µM
TGI [2]: > 100 µM
TGI [3]: > 100 µM
TGI [4]: > 100 µM
TGI [5]: > 100 µM
TGI [6]: > 100 µM
TGI [7]: > 100 µM
TGI [8]: > 100 µM
TGI [9]: > 100 µM
TGI [10]: > 100 µM
TGI [11]: > 100 µM
TGI [12]: > 100 µM
TGI [13]: > 100 µM
TGI [14]: > 100 µM
TGI [15]: > 100 µM
TGI [16]: > 100 µM
TGI [17]: > 100 µM
TGI [18]: > 100 µM
TGI [19]: > 100 µM
TGI [20]: > 100 µM
TGI [21]: > 100 µM
TGI [22]: > 100 µM
TGI [23]: > 100 µM
TGI [24]: > 100 µM
TGI [25]: > 100 µM
TGI [26]: > 100 µM
TGI [27]: > 100 µM
TGI [28]: > 100 µM
TGI [29]: > 100 µM
TGI [30]: > 100 µM
TGI [31]: > 100 µM
TGI [32]: > 100 µM
TGI [33]: > 100 µM
TGI [34]: > 100 µM
TGI [35]: > 100 µM
TGI [36]: > 100 µM
TGI [37]: > 100 µM
TGI [38]: > 100 µM
TGI [39]: > 100 µM
TGI [40]: > 100 µM
TGI [41]: > 100 µM
TGI [42]: > 100 µM
TGI [43]: > 100 µM
TGI [44]: > 100 µM
TGI [45]: > 100 µM
TGI [46]: > 100 µM
TGI [47]: > 100 µM
TGI [48]: > 100 µM
TGI [49]: > 100 µM
TGI [50]: > 100 µM
TGI [51]: > 100 µM
TGI [52]: > 100 µM
TGI [53]: > 100 µM

C(=Nc1ccc(-c2nc3ccccc3o2)cc1)c1ccco1
TGI [1]: > 100 µM
TGI [2]: > 100 µM
TGI [54]: > 100 µM
TGI [5]: > 100 µM
TGI [7]: > 100 µM
TGI [8]: > 100 µM
TGI [9]: > 100 µM
TGI [10]: > 100 µM
TGI [11]: > 100 µM
TGI [12]: > 100 µM
TGI [55]: > 100 µM
TGI [13]: > 100 µM
TGI [15]: > 100 µM
TGI [17]: > 100 µM
TGI [21]: > 100 µM
TGI [22]: > 100 µM
TGI [56]: > 100 µM
TGI [23]: > 100 µM
TGI [24]: > 100 µM
TGI [28]: > 100 µM
TGI [29]: > 100 µM
TGI [30]: > 100 µM
TGI [32]: > 100 µM
TGI [33]: > 100 µM
TGI [34]: > 100 µM
TGI [35]: > 100 µM
TGI [36]: > 100 µM
TGI [37]: > 100 µM
TGI [38]: > 100 µM
TGI [41]: > 100 µM
TGI [43]: > 100 µM
TGI [44]: 36.9 µM
TGI [45]: > 100 µM
TGI [46]: > 100 µM
TGI [47]: > 100 µM
TGI [48]: > 100 µM
TGI [57]: 95 µM
TGI [49]: > 100 µM
TGI [50]: > 100 µM
TGI [51]: > 100 µM
TGI [53]: > 100 µM
